Assay results: paper PMC10025480 (Frontiers in Pharmacology, 2023)
Read-outs that look alike come from different tables or passages of the source.

Assays:
HBE cells = assay: Goblet cell formation (MUC5AC+ and acetylated α-tubulin+ stained area) in HBE; type: cell-based, human; conditions: for acetylated α-tubulin (ciliated) stained area / MUC5AC+ stained area (goblet cells): 96 h; for MUC5AC+ stained area (goblet cells): IL-13 naïve and IL-13 treated cultures
Description: HBE cultured at air-liquid interface for 14–21 days were treated with TMEM16A blockers ± IL-13 (10 ng/mL; basolateral) for 96 h to establish any effects on goblet cell numbers. At 48h, LDH levels in the media were measured according to the manufacturer’s instructions (Roche Cytotoxicity Detection Kit #11644793001), and blockers, IL-13 and media were refreshed. At 96 h, wells were fixed in 4% formaldehyde and were stained with antibodies to MUC5AC (45M1; Thermo Fisher, United Kingdom) and acetylated α-tubulin (6-11B-1; Sigma, United Kingdom) as previously described ([Danahay et al., 2015]; [Danahay et al., 2020b]) with secondary antibodies to enable fluorescence detection of both proteins (Alexa Fluor; Thermo Fisher, United Kingdom). The MUC5AC^+ stained area was visualised using a Zeiss Axiovert epifluorescence microscope with a motorised stage that was used to image the same 9 regions of interest on each insert. ImageJ was used to quantify the MUC5AC^+ and stained area per insert which was normalised to the vehicle control group. The process was repeated for the acetylated α-tubulin^+ stained area.

hTMEM16Aabc = target: T1, hTMEM16Aabc (Homo sapiens, UniProt Q5XXA6, DEL476-501); assay: Whole-cell patch clamp (QPatch), FRT-hTMEM16Aabc cells; type: cell-based; conditions: for IC50: [Ca2+]i clamped at 415 nM
T1 construct: expressed in transfected cells
T1 sequence (Q5XXA6 with tags, fused parts or gaps isoform Q5XXA6-5 DEL539-564): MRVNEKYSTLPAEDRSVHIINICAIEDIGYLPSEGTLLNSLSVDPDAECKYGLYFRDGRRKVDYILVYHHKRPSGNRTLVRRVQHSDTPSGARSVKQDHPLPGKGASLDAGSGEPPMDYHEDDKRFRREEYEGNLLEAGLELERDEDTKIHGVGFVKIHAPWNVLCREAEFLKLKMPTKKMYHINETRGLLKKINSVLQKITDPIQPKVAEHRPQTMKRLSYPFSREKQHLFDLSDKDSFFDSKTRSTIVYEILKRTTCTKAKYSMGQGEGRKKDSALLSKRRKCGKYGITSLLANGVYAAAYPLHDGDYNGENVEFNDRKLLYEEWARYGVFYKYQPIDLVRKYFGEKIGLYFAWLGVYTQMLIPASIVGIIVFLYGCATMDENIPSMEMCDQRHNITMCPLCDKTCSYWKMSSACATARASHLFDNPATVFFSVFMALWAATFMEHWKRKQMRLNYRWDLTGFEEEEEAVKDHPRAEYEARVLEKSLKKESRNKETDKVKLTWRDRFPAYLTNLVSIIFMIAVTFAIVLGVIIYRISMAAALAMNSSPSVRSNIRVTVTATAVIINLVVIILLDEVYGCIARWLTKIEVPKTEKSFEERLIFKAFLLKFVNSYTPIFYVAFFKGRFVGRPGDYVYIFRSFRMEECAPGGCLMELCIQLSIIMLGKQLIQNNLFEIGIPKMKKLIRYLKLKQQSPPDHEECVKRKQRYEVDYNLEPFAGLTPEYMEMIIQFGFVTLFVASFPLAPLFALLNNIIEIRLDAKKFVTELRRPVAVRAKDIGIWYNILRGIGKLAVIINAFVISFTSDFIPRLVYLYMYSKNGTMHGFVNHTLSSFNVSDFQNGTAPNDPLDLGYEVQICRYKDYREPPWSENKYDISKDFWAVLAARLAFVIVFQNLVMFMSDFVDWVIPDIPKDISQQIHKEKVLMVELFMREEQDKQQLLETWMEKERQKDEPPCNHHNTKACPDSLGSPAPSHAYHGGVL
Description: Current rectification ratios were calculated by dividing the magnitude of the outward current at +90 mV by the magnitude of the inward current at −90 mV.

[1] = test system: panel of 22 functional GPCR assays; assay: SelectScreen cell-based GPCR assay panel; conditions: 10 µM
From the text: Profiling of compound activity versus a select panel of diverse GPCRs was undertaken by ThermoFisher Scientific (United Kingdom) via their SelectScreen cell-based GPCR assay panel. Detailed experimental protocols on this assay platform can be found at (https://www.thermofisher.com/content/dam/LifeTech/migration/en/filelibrary/services/discovery-research/pdfs.par.36410.file.dat/sscg-brochure.pdf). Briefly these assays detect agonist or antagonist activity using cell lines with the GPCR of interest over-expressed, driving the expression of a reporter gene encompassing a mammalian-optimized Beta-lactamase. Test compounds are incubated with the specific cell lines at the defined final concentration for 5 or 16 h (depending on the cell line specifics) before quantification of effect.

HBE cells (non-CF) = assay: Short-circuit current (ISC) and transepithelial resistance, non-CF HBE; type: cell-based, human; conditions: for Inh172-sensitive ISC / amiloride-sensitive current / magnitude of response to amiloride / forskolin-stimulated current: after compound treatment; for change in transepithelial resistance: vehicle +108 ± 14
Description: (§1) HBE cultured at air-liquid interface (ALI) for 14–21 days were mounted in Ussing chambers in symmetrical Ringers solution containing (in mM): 120 NaCl, 25 NaHCO3, 3.3 KH2PO4, 0.8 K2HPO4, 1.2 CaCl2, 1.2 MgCl2, and 10 glucose, and voltage clamped as described above. In some studies, HBE were pre-treated with IL-13 (10 ng/mL; Peprotech, United Kingdom) for 48 h to increase TMEM16A expression levels ([Caputo et al., 2008]). Amiloride (10 μM; apical) was used to block the spontaneous, ENaC-mediated current, whilst UTP (10 μM; apical) and forskolin (10 μM; apical and basolateral) were added to the bath solutions to activate Ca^2+ and cAMP-dependent anion secretory responses, respectively. Inh172 (30 μM; apical and basolateral) was also used to inhibit CFTR function. The TMEM16A blockers were added to the apical side of the Ussing chambers to evaluate effects on each of these currents.

CF-HBE cells [2] = assay: Intracellular Ca2+ measurement (Calcium6), IL-13 pre-treated CF-HBE at ALI; type: cell-based, human; conditions: for direct effect on baseline [Ca2+]i: apical addition; for UTP-stimulated elevation of [Ca2+]i: pre-treatment
Description: (§2) CF-HBE cultured at air-liquid interface for 14–21 days were pre-treated with IL-13 (10 ng/mL; 48 h). CF-HBE were then loaded with the Ca^2+-sensitive fluorescent reporter dye, Calcium6 for 120 min at 37°C in Hanks balanced salt solution (HBSS) buffered with 20 mM HEPES (pH 7.4). […] The direct effects of apically administered TMEM16A blockers on [Ca^2+]i as well as effects on the subsequent responses to UTP were measured using a PHERAstar plate reader (BMG Lab Tech, United Kingdom). Equivalent measurements were performed in FRT-TMEM16Aabc cells that had been cultured in 96 well, clear bottom plastic plates and loaded with Calcium6 using the same protocol.

CF-HBE cells [3] = assay: Short-circuit current (ISC), IL-13 pre-treated CF-HBE; type: cell-based, human
Description: as §1

FRT-TMEM16Aabc cells = assay: Intracellular Ca2+ measurement (Calcium6), FRT-TMEM16Aabc cells; type: cell-based; conditions: 10 min pre-treatment
Description: as §2

[4] = after amiloride, 5 min pre-treatment

Structure (SMILES)	acetylated α-tubulin (ciliated) stained area (HBE cells)	MUC5AC+ stained area (goblet cells) (HBE cells)	number of GPCRs inhibited by ≥ 50% [1]	Inh172-sensitive ISC (HBE cells (non-CF))	amiloride-sensitive current / magnitude of response to amiloride (HBE cells (non-CF))	forskolin-stimulated current (HBE cells (non-CF))	change in transepithelial resistance (HBE cells (non-CF))	direct effect on baseline [Ca2+]i (CF-HBE cells [2])	UTP-stimulated elevation of [Ca2+]i (CF-HBE cells [2])	UTP-stimulated peak increase in ISC (CF-HBE cells [3]; [4])	UTP-stimulated increase in [Ca2+]i (FRT-TMEM16Aabc cells)	further results
O=C(Nc1ccc([N+](=O)[O-])cc1Cl)c1cc(Cl)ccc1O [niclosamide]	significantly attenuated	significantly attenuated	11	attenuated	attenuated	attenuated	−174 ± 19 Ω cm^2	immediate and transient increase	attenuated	attenuated	significantly attenuated	air-liquid interface integrity (HBE cells; by 48 h after initiating treatment, media on mucosal surface): compromised; current reversal potential (hTMEM16Aabc; 30 µM, vehicle −12.3 ± 2.0 mV): −29.8 ± 1.3 mV; effect on TMEM16Aabc currents (hTMEM16Aabc; bell-shaped response, [Ca2+]i 415 nM): potentiation of currents at concentrations up to 1.1 µM; reduction in the baseline ISC (HBE cells (non-CF); 10 µM, within 30 min of addition): ~90%; immediate, transient increase in ISC (CF-HBE cells [3]; 10 µM, vehicle 0.5 ± 0.2): 6.8 ± 1.0 µAcm^-2; change to lower baseline ISC than before compound addition (CF-HBE cells [3]; 10 µM, vehicle −0.3 ± 0.1): −0.9 ± 0.2 µAcm^-2
CCc1oc2ccccc2c1C(=O)c1cc(Br)c(O)c(Br)c1 [benzbromarone]	significantly attenuated	significantly attenuated	6	attenuated	attenuated	attenuated	+170 ± 25 Ω cm^2	immediate and transient increase	attenuated	attenuated	significantly attenuated	IC50 (hTMEM16Aabc; IC50 (printed in Figure 1, concentration-response curves), hTMEM16Aabc currents in FRT cells): 3.05 ± 0.586 µM; IC50 (hTMEM16Aabc; IC50, inhibition of TMEM16Aabc currents, assessed at +90 mV, FRT cells): 3 ± 0.6 µM; IC50 (hTMEM16Aabc; at −90 mV, FRT cells, read-out: IC50, inhibition of TMEM16Aabc currents): 1.3 ± 0.3 µM; inhibition at 30 µM (hTMEM16Aabc; highest concentration tested, 30 µM, [Ca2+]i 415 nM, read-out: inhibition of TMEM16Aabc current): 96%; decline in the baseline ISC (HBE cells (non-CF); apical): 50%; direct effect on amiloride-insensitive baseline ISC (CF-HBE cells [3]): Neither Ani9 nor benzbromarone had any direct effect; UTP-stimulated ISC AUC (CF-HBE cells [3]; [4]): attenuated
